In test [1] the test system is HCV genotype 1b (Con-1) subgenomic replicon with NS3 resistance mutation D168V in Huh-7 cells. The test is described as follows: HCV replicon RNA replication assay (NS3 protease variants), genotype 1b D168V. The note with it: Hepatitis C virus, Huh-7, 72 h, read-out: D168V 1b EC50 (nM). Format: cell-based.
Test [2] deals with HCV genotype 1a (strain H77) subgenomic replicon with NS3 resistance mutation R155K in Huh-7 cells. The experiment in a line: HCV replicon RNA replication assay (NS3 protease variants), genotype 1a R155K. The note with it: Hepatitis C virus, Huh-7, 72 h, read-out: R155K 1a EC50 (nM). The test is classed as cell-based.

As to `CCOc1ccc2c(O[C@@H]3C[C@H]4C(=O)N[C@]5(C(=O)NS(=O)(=O)C6(C)CC6)C[C@H]5/C=C\CCCCC[C@H](NC(=O)c5ccn(C)n5)C(=O)N4C3)cc(OC(C)C)nc2c1Cl` [Compound 1001, (2R,6S,12Z,13aS,14aR,16aS)-2-{[8-chloro-7-ethoxy-2-(propan-2-yloxy)quinolin-4-yl]oxy}-N-[(1-methylcyclopropyl)sulfonyl]-6-{[(1-methyl-1H-pyrazol-3-yl)carbonyl]amino}-5,16-dioxo-1,2,3,6,7,8,9,10,11,13a,14,15,16,16a-tetradecahydrocyclopropa[e]pyrrolo[1,2-a][1,4]diazacyclopentadecine-14a(5H)-carboxamide], the EC50 in test [1] worked out at 0.33 nM; in test [2], 2.6 nM.

For `COc1ccc2c(O[C@@H]3C[C@H]4C(=O)N[C@]5(C(=O)NS(=O)(=O)C6CC6)C[C@H]5/C=C\CCCCC[C@H](NC(=O)c5ccn(CC(=O)N(C)C)n5)C(=O)N4C3)cc(OC(C)C)nc2c1C` [Compound 1002, (2R,6S,12Z,13aS,14aR,16aS)-N-(cyclopropylsulfonyl)-6-[({1-[2-(dimethylamino)-2-oxoethyl]-1H-pyrazol-3-yl}carbonyl)amino]-2-{[7-methoxy-8-methyl-2-(propan-2-yloxy)quinolin-4-yl]oxy}-5,16-dioxo-1,2,3,6,7,8,9,10,11,13a,14,15,16,16a-tetradecahydrocyclopropa[e]pyrrolo[1,2-a][1,4]diazacyclopentadecine-14a(5H)-carboxamide], the EC50 was 3 nM in test [1] and 2.6 nM in test [2].

On to `COc1ccc2c(O[C@@H]3C[C@H]4C(=O)N[C@]5(C(=O)NS(=O)(=O)C6CC6)C[C@H]5/C=C\CCCCC[C@H](NC(=O)c5ccn(C)n5)C(=O)N4C3)cc(OC(C)C)nc2c1C` [Compound 1003, (2R,6S,12Z,13aS,14aR,16aS)-N-(cyclopropylsulfonyl)-2-{[7-methoxy-8-methyl-2-(propan-2-yloxy)quinolin-4-yl]oxy}-6-{[(1-methyl-1H-pyrazol-3-yl)carbonyl]amino}-5,16-dioxo-1,2,3,6,7,8,9,10,11,13a,14,15,16,16a-tetradecahydrocyclopropa[e]pyrrolo[1,2-a][1,4]diazacyclopentadecine-14a(5H)-carboxamide], for which the EC50 in test [1] came to 0.29 nM; in test [2], 4.3 nM.

Turning to `COc1ccc2c(O[C@@H]3C[C@H]4C(=O)N[C@]5(C(=O)NS(=O)(=O)C6(C)CC6)C[C@H]5/C=C\CCCCC[C@H](NC(=O)c5ccc(C)s5)C(=O)N4C3)cc(OC(C)C)nc2c1C` [Compound 1004, (2R,6S,12Z,13aS,14aR,16aS)-2-{[7-methoxy-8-methyl-2-(propan-2-yloxy)quinolin-4-yl]oxy}-N-[(1-methylcyclopropyl)sulfonyl]-6-{[(5-methylthiophen-2-yl)carbonyl]amino}-5,16-dioxo-1,2,3,6,7,8,9,10,11,13a,14,15,16,16a-tetradecahydrocyclopropa[e]pyrrolo[1,2-a][1,4]diazacyclopentadecine-14a(5H)-carboxamide], the EC50 in test [1] came out at 0.22 nM; in test [2], 2.8 nM.

On to `COc1ccc2c(O[C@@H]3C[C@H]4C(=O)N[C@]5(C(=O)NS(=O)(=O)C6(C)CC6)C[C@H]5/C=C\CCCCC[C@H](NC(=O)c5ccn(C)n5)C(=O)N4C3)cc(OC(C)C)nc2c1OC` [Compound 1005, (2R,6S,12Z,13aS,14aR,16aS)-2-{[7,8-dimethoxy-2-(propan-2-yloxy)quinolin-4-yl]oxy}-N-[(1-methylcyclopropyl)sulfonyl]-6-{[(1-methyl-1H-pyrazol-3-yl)carbonyl]amino}-5,16-dioxo-1,2,3,6,7,8,9,10,11,13a,14,15,16,16a-tetradecahydrocyclopropa[e]pyrrolo[1,2-a][1,4]diazacyclopentadecine-14a(5H)-carboxamide], for which the results for the EC50 in test [1] and in test [2] were 2 nM and 2.5 nM, respectively.

With `COCCn1ccc(C(=O)N[C@H]2CCCCC/C=C\[C@@H]3C[C@@]3(C(=O)NS(=O)(=O)C3CC3)NC(=O)[C@@H]3C[C@@H](Oc4cc(OC(C)C)nc5c(C)c(OC)ccc45)CN3C2=O)n1` [Compound 1006, (2R,6S,12Z,13aS,14aR,16aS)-N-(cyclopropylsulfonyl)-6-({[1-(2-methoxyethyl)-1H-pyrazol-3-yl]carbonyl}amino)-2-{[7-methoxy-8-methyl-2-(propan-2-yloxy)quinolin-4-yl]oxy}-5,16-dioxo-1,2,3,6,7,8,9,10,11,13a,14,15,16,16a-tetradecahydrocyclopropa[e]pyrrolo[1,2-a][1,4]diazacyclopentadecine-14a(5H)-carboxamide], the EC50 was determined as 0.33 nM in test [1] and 7 nM in test [2].

Regarding `COc1ccc2c(O[C@@H]3C[C@H]4C(=O)N[C@]5(C(=O)NS(=O)(=O)C6CC6)C[C@H]5/C=C\CCCCC[C@H](NC(=O)c5ccc(C)s5)C(=O)N4C3)cc(OC(C)C)nc2c1C` [Compound 1007, (2R,6S,12Z,13aS,14aR,16aS)-N-(cyclopropylsulfonyl)-2-{[7-methoxy-8-methyl-2-(propan-2-yloxy)quinolin-4-yl]oxy}-6-{[(5-methylthiophen-2-yl)carbonyl]amino}-5,16-dioxo-1,2,3,6,7,8,9,10,11,13a,14,15,16,16a-tetradecahydrocyclopropa[e]pyrrolo[1,2-a][1,4]diazacyclopentadecine-14a(5H)-carboxamide], in test [1], the EC50 is 0.25 nM.

For the molecule `CC(C)Oc1cc(O[C@@H]2C[C@H]3C(=O)N[C@]4(C(=O)NS(=O)(=O)C5(C)CC5)C[C@H]4/C=C\CCCCC[C@H](NC(=O)c4ccn(C)n4)C(=O)N3C2)c2ccc(F)c(F)c2n1` [Compound 1008, (2R,6S,12Z,13aS,14aR,16aS)-2-{[7,8-difluoro-2-(propan-2-yloxy)quinolin-4-yl]oxy}-N-[(1-methylcyclopropyl)sulfonyl]-6-{[(1-methyl-1H-pyrazol-3-yl)carbonyl]amino}-5,16-dioxo-1,2,3,6,7,8,9,10,11,13a,14,15,16,16a-tetradecahydrocyclopropa[e]pyrrolo[1,2-a][1,4]diazacyclopentadecine-14a(5H)-carboxamide], the EC50 in test [1] is 0.35 nM; in test [2], 2.9 nM.

On to `COc1ccc2c(O[C@@H]3C[C@H]4C(=O)N[C@]5(C(=O)NS(=O)(=O)C6(C)CC6)C[C@H]5/C=C\CCCCC[C@H](NC(=O)c5cc[nH]n5)C(=O)N4C3)cc(OC(C)C)nc2c1C` [Compound 1009, (2R,6S,12Z,13aS,14aR,16aS)-2-{[7-methoxy-8-methyl-2-(propan-2-yloxy)quinolin-4-yl]oxy}-N-[(1-methylcyclopropyl)sulfonyl]-5,16-dioxo-6-[(1H-pyrazol-3-ylcarbonyl)amino]-1,2,3,6,7,8,9,10,11,13a,14,15,16,16a-tetradecahydrocyclopropa[e]pyrrolo[1,2-a][1,4]diazacyclopentadecine-14a(5H)-carboxamide], for which the EC50 in test [1] is 0.49 nM; in test [2] it was 1.9 nM.

As to `COc1c(Cl)ccc2c(O[C@@H]3C[C@H]4C(=O)N[C@]5(C(=O)NS(=O)(=O)C6(C)CC6)C[C@H]5/C=C\CCCCC[C@H](NC(=O)c5ccn(C)n5)C(=O)N4C3)cc(OC(C)C)nc12` [Compound 1010, (2R,6S,12Z,13aS,14aR,16aS)-2-{[7-chloro-8-methoxy-2-(propan-2-yloxy)quinolin-4-yl]oxy}-N-[(1-methylcyclopropyl)sulfonyl]-6-{[(1-methyl-1H-pyrazol-3-yl)carbonyl]amino}-5,16-dioxo-1,2,3,6,7,8,9,10,11,13a,14,15,16,16a-tetradecahydrocyclopropa[e]pyrrolo[1,2-a][1,4]diazacyclopentadecine-14a(5H)-carboxamide], the EC50 in test [1] amounted to 0.33 nM; in test [2], 7 nM.

As to `COc1c(Cl)ccc2c(O[C@@H]3C[C@H]4C(=O)N[C@]5(C(=O)NS(=O)(=O)C6(C)CC6)C[C@H]5/C=C\CCCCC[C@H](NC(=O)c5cnn(C)n5)C(=O)N4C3)cc(OC(C)C)nc12` [Compound 1011, (2R,6S,12Z,13aS,14aR,16aS)-2-{[7-chloro-8-methoxy-2-(propan-2-yloxy)quinolin-4-yl]oxy}-N-[(1-methylcyclopropyl)sulfonyl]-6-{[(2-methyl-2H-1,2,3-triazol-4-yl)carbonyl]amino}-5,16-dioxo-1,2,3,6,7,8,9,10,11,13a,14,15,16,16a-tetradecahydrocyclopropa[e]pyrrolo[1,2-a][1,4]diazacyclopentadecine-14a(5H)-carboxamide], the EC50 amounted to 0.63 nM in test [1] and 8.4 nM in test [2].

For the molecule `COc1ccc2c(O[C@@H]3C[C@H]4C(=O)N[C@]5(C(=O)NS(=O)(=O)C6(C)CC6)C[C@H]5/C=C\CCCCC[C@H](NC(=O)c5ccc(C)s5)C(=O)N4C3)cc(OC3CC3)nc2c1C` [Compound 1012, (2R,6S,12Z,13aS,14aR,16aS)-2-{[2-(cyclopropyloxy)-7-methoxy-8-methylquinolin-4-yl]oxy}-N-[(1-methylcyclopropyl)sulfonyl]-6-{[(5-methylthiophen-2-yl)carbonyl]amino}-5,16-dioxo-1,2,3,6,7,8,9,10,11,13a,14,15,16,16a-tetradecahydrocyclopropa[e]pyrrolo[1,2-a][1,4]diazacyclopentadecine-14a(5H)-carboxamide], the values for the EC50 in test [1] and in test [2] were 0.26 nM and 5.6 nM, respectively.

For the molecule `COc1ccc2c(O[C@@H]3C[C@H]4C(=O)N[C@]5(C(=O)NS(=O)(=O)C6CC6)C[C@H]5/C=C\CCCCC[C@H](NC(=O)c5cc[nH]n5)C(=O)N4C3)cc(OC(C)C)nc2c1C` [Compound 1016, (2R,6S,12Z,13aS,14aR,16aS)-N-(cyclopropylsulfonyl)-2-{[7-methoxy-8-methyl-2-(propan-2-yloxy)quinolin-4-yl]oxy}-5,16-dioxo-6-[(1H-pyrazol-3-ylcarbonyl)amino]-1,2,3,6,7,8,9,10,11,13a,14,15,16,16a-tetradecahydrocyclopropa[e]pyrrolo[1,2-a][1,4]diazacyclopentadecine-14a(5H)-carboxamide], in test [1], the EC50 was determined as 0.92 nM.

These data come from US20110294778A1, “HEPATITIS C INHIBITOR COMPOUNDS” (priority 2009, published 2011).
